Patent publication US11884647B2, “Compounds and methods for targeting pathogenic blood vessels” (THE REGENTS OF THE UNIVERSITY OF CALIFORNIA, priority 2019, dated 2024)

Test system: tumor endothelial cells (LL/2 lung cancer tumor)
Test: Lung LL2 ex vivo model of tumor angiogenesis
Type: cell-based, mouse
Conditions: for Cell death (24 hrs) / Morphology observations (24 hrs): Conc. 20 μm; for cytotoxicity at 40 µM / cytotoxicity at 10 µM / cytotoxicity at 20 µM: Mus musculus, Endothelial cell, 48 h, read-out: Cell death; for Cell death: drug treatment two days
Summary of the method: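 Read-out is live/dead fluorescence imaging (fluorescein diacetate green, propidium iodide red, 10 min at 37° C) at 2×, taken e.g. 48 h after drug addition. Fragments of mouse LL2 tumor are cultured in Matrigel with endothelial growth medium, usually 4 days, until new endothelial cells grow out, then treated.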

SMILES: CCCCCCCCCCOc1ccc(S(=O)(=O)c2cnc3ccc([S+](C)[O-])cc3c2N2CCC(N3CCN(CCO)CC3)CC2)cc1F (stereo not drawn) [compound 291, 2-(4-(1-(3-((4-(decyloxy)-3-fluorophenyl)sulfonyl)-6-(methylsulfinyl)quinolin-4-yl)piperidin-4-yl)piperazin-1-yl)ethan-1-ol]
- Cell death (24 hrs) (Lung LL2 ex vivo): 10%
- Morphology observations (24 hrs) (Lung LL2 ex vivo): * (50% or less of cells vesicularize in cell shape)

SMILES: COc1ccc(S(=O)(=O)c2cnc3ccc(OC(F)(F)F)cc3c2NCCO)cc1OC [compound 73, 2-((3-((3,4-dimethoxyphenyl)sulfonyl)-6-(trifluoromethoxy)quinolin-4-yl)amino)ethan-1-ol]
- cytotoxicity at 40 µM: 10%

SMILES: CCOC(=O)c1ccc2ncc(S(=O)(=O)c3ccc(OC)cc3)c(N3CCC(N4CCCC(O)C4)CC3)c2c1 (stereo not drawn) [compound 174, ethyl 4-(3-hydroxy-[1,4′-bipiperidin]-1′-yl)-3-((4-methoxyphenyl)sulfonyl)quinoline-6-carboxylate]
- cytotoxicity at 40 µM: 30%

SMILES: CCOC(=O)c1ccc2ncc(S(=O)(=O)c3ccc(OC)cc3)c(N3CCCN(CCN4CCCC4)CC3)c2c1 [compound 180, ethyl 3-((4-methoxyphenyl)sulfonyl)-4-(4-(2-(pyrrolidin-1-yl)ethyl)-1,4-diazepan-1-yl)quinoline-6-carboxylate]
- cytotoxicity at 10 µM: 70%

SMILES: CCCCOc1ccc(S(=O)(=O)c2cnc3ccc(C(=O)OCC)cc3c2N2CCC(N3CCSCC3)CC2)cc1 [compound 217, ethyl 3-((4-butoxyphenyl)sulfonyl)-4-(4-thiomorpholinopiperidin-1-yl)quinoline-6-carboxylate]
- cytotoxicity at 40 µM: 30%

SMILES: CCCCOc1ccc(S(=O)(=O)c2cnc3ccc(C(=O)OCC)cc3c2N2CCCN(CCN3CCCC3)CC2)cc1 [compound 182, ethyl 3-((4-butoxyphenyl)sulfonyl)-4-(4-(2-(pyrrolidin-1-yl)ethyl)-1,4-diazepan-1-yl)quinoline-6-carboxylate]
- cytotoxicity at 40 µM: 100%

SMILES: CCCCCCCCCCOc1ccc(S(=O)(=O)c2cnc3ccc([S+](C)[O-])cc3c2N2CCC(N3CCC(N4CCCN(C)CC4)CC3)CC2)cc1 (stereo not drawn) [compound 287, 3-((4-(decyloxy)phenyl)sulfonyl)-4-(4-(4-methyl-1,4-diazepan-1-yl)-[1,4′-bipiperidin]-1′-yl)-6-(methylsulfinyl)quinoline]
- Cell death (24 hrs) (Lung LL2 ex vivo): 40%
- Morphology observations (24 hrs) (Lung LL2 ex vivo): * (50% or less of cells vesicularize in cell shape)

SMILES: CNC(=O)c1ccc(C2CCN(c3c(S(=O)(=O)c4ccc(OC)cc4)cnc4cc(OC)c(OC)cc34)CC2)cc1 [compound 310, 4-(1-(6,7-dimethoxy-3-((4-methoxyphenyl)sulfonyl)quinolin-4-yl)piperidin-4-yl)-N-methylbenzamide]
- cytotoxicity at 40 µM: 10%

SMILES: CCOC(=O)c1ccc(N2CCN(c3c(S(=O)(=O)c4ccc(OC)cc4)cnc4cc(OC)c(OC)cc34)CC2)cc1 [compound 317, ethyl 4-(4-(6,7-dimethoxy-3-((4-methoxyphenyl)sulfonyl)quinolin-4-yl)piperazin-1-yl)benzoate]
- cytotoxicity at 40 µM: 30%

SMILES: CCCCCCCCCCCCCCOc1ccc(S(=O)(=O)c2cnc3ccc([S+](C)[O-])cc3c2N2CCC(N3CCC(N4CCC(O)CC4)CC3)CC2)cc1F (stereo not drawn) [compound 373, 1″-(3-((3-fluoro-4-(tetradecyloxy)phenyl)sulfonyl)-6-(methylsulfinyl)quinolin-4-yl)-[1,4′:1′,4″- terpiperidin]-4-ol]
- cytotoxicity at 20 µM: 20%

SMILES: CCCCCCCOc1ccc(S(=O)(=O)c2cnc3ccc(SC)cc3c2N2CCC(N3CCC(O)(c4ccccc4)CC3)CC2)cc1 [compound 262, 1′-(3-((4-(heptyloxy)phenyl)sulfonyl)-6-(methylthio)quinolin-4-yl)-4-phenyl-[1,4′-bipiperidin]-4-ol]
- cytotoxicity at 10 µM: 20%

SMILES: COc1ccc(S(=O)(=O)c2cnc3cc(OC)c(OC)cc3c2N2CCCN(C3COC3)CC2)cc1 [compound 326, 6,7-dimethoxy-3-((4-methoxyphenyl)sulfonyl)-4-(4-(oxetan-3-yl)-1,4-diazepan-1-yl)quinoline]
- cytotoxicity at 40 µM: 30%

SMILES: CCCCOc1ccc(S(=O)(=O)c2cnc3ccc(C(=O)NCCO)cc3c2N2CCCN(C)CC2)cc1 [compound 200, 3-((4-butoxyphenyl)sulfonyl)-N-(2-hydroxyethyl)-4-(4-methyl-1,4-diazepan-1-yl)quinoline-6-carboxamide]
- Cell death (Lung LL2 ex vivo, Conc. 40 μm): 30%

SMILES: CCCCOc1ccc(S(=O)(=O)c2cnc3ccc(C(=O)OCC)cc3c2N2CCC(N3CCCC(O)C3)CC2)cc1 (stereo not drawn) [compound 177, ethyl 3-((4-butoxyphenyl)sulfonyl)-4-(3-hydroxy-[1,4′-bipiperidin]-1′-yl)quinoline-6-carboxylate]
- cytotoxicity at 40 µM: 100%

SMILES: CCCCCCCCCCCCOc1ccc(S(=O)(=O)c2cnc3ccc([S+](C)[O-])cc3c2N2CCC(N3CCC(N4CCC(O)CC4)CC3)CC2)cc1 (stereo not drawn) [compound 374, 1″-(3-((4-(dodecyloxy)phenyl)sulfonyl)-6-(methylsulfinyl)quinolin-4-yl)-[1,4′:1′,4″-terpiperidin]-4-ol]
- cytotoxicity at 20 µM: 20%

SMILES: CCCCOc1ccc(S(=O)(=O)c2cnc3ccc(SC)cc3c2N2CCC(N3CCCN(C)CC3)CC2)cc1 [compound 234, 3-((4-butoxyphenyl)sulfonyl)-4-(4-(4-methyl-1,4-diazepan-1-yl)piperidin-1-yl)-6-(methylthio)quinoline]
- cytotoxicity at 40 µM: 100%

SMILES: COc1ccc(S(=O)(=O)c2cnc3ccc([N+](=O)[O-])cc3c2N2CCC(N3CCCCC3)CC2)cc1 [compound 114, 4-([1,4′-bipiperidin]-1′-yl)-3-((4-methoxyphenyl)sulfonyl)-6-nitroquinoline]
- cytotoxicity at 20 µM: 5%

SMILES: CCN(CC)CCCN1CCN(c2c(S(=O)(=O)c3ccc(OC)cc3)cnc3cc(OC)c(OC)cc23)CC1 [compound 302, 3-(4-(6,7-dimethoxy-3-((4-methoxyphenyl)sulfonyl)quinolin-4-yl)piperazin-1-yl)-N,N-diethylpropan-1-amine]
- cytotoxicity at 40 µM: 70%

SMILES: CCCCOc1ccc(S(=O)(=O)c2cnc3ccc(C(=O)NC4C(O)O[C@H](CO)[C@@H](O)[C@@H]4O)cc3c2N2CCCN(C)CC2)cc1 (stereo partly drawn) [compound 193, 3-((4-butoxyphenyl)sulfonyl)-4-(4-methyl-1,4-diazepan-1-yl)-N-((4R,5S,6R)-2,4,5-trihydroxy-6-(hydroxymethyl)tetrahydro-2H-pyran-3-yl)quinoline-6-carboxamide]
- Cell death (Lung LL2 ex vivo, Conc. 40 μm): 30%

SMILES: CCCCCCCCCCOc1ccc(S(=O)(=O)c2cnc3ccc([S+](C)[O-])cc3c2N2CCC(N3CCC(N4CCCCC4)CC3)CC2)cc1F (stereo not drawn) [compound 290, ([1,4′:1′,4″-terpiperidin]-1″-yl)-3-((4-(decyloxy)-3-fluorophenyl)sulfonyl)-6-(methylsulfinyl)quinoline]
- 48 hrs (morphology observations after 48 hours) (Lung LL2 ex vivo, Conc. 10 μm, 48 hrs): *** (100% of endothelial cells vesicularize in cell shape)
- Cell death (Lung LL2 ex vivo, Conc. 10 μm): 50%

SMILES: CCCCOc1ccc(S(=O)(=O)c2cnc3ccc(C(=O)N(CC)CC)cc3c2N2CCCN(C)CC2)cc1 [compound 199, 3-((4-butoxyphenyl)sulfonyl)-N,N-diethyl-4-(4-methyl-1,4-diazepan-1-yl)quinoline-6-carboxamide]
- cytotoxicity at 40 µM: 30%

SMILES: CCCCCCCOc1ccc(S(=O)(=O)c2cnc3ccc(SC)cc3c2N2CCC(N3CCCC(O)C3)CC2)cc1 (stereo not drawn) [compound 247, 1′-(3-((4-(heptyloxy)phenyl)sulfonyl)-6-(methylthio)quinolin-4-yl)-[1,4′-bipiperidin]-3-ol]
- cytotoxicity at 20 µM: 60%

SMILES: COc1ccc(S(=O)(=O)c2cnc3cc(OC)c(OC)cc3c2N2CCCN(CC3(O)CCCC3)CC2)cc1 [compound 325, 1-((4-(6,7-dimethoxy-3-((4-methoxyphenyl)sulfonyl)quinolin-4-yl)-1,4-diazepan-1-yl)methyl)cyclopentan-1-ol]
- cytotoxicity at 40 µM: 30%

SMILES: CCCCOc1ccc(S(=O)(=O)c2cnc3ccc([S+](C)[O-])cc3c2N2CCC(N3CCN(c4ccc(F)cc4)CC3)CC2)cc1 (stereo not drawn) [compound 239, 3-((4-butoxyphenyl)sulfonyl)-4-(4-(4-(4-fluorophenyl)piperazin-1-yl)piperidin-1-yl)-6-(methylsulfinyl)quinoline]
- cytotoxicity at 40 µM: 40%

SMILES: CCOC(=O)c1ccc2ncc(S(=O)(=O)c3ccc(OC)cc3)c(-n3cnnn3)c2c1 [compound 185, ethyl 3-((4-methoxyphenyl)sulfonyl)-4-(1H-tetrazol-1-yl)quinoline-6-carboxylate]
- cytotoxicity at 10 µM: 30%

SMILES: CCCCOc1ccc(S(=O)(=O)c2cnc3ccc(SC)cc3c2N2CCC(N3CCSCC3)CC2)cc1 [compound 243, 4-(1-(3-((4-butoxyphenyl)sulfonyl)-6-(methylthio)quinolin-4-yl)piperidin-4-yl)thiomorpholine]
- cytotoxicity at 40 µM: 20%

SMILES: COc1ccc(S(=O)(=O)c2cnc3cc(OC)c(OC)cc3c2N2CCC(N3CCCCC3)CC2)cc1OC [compound 122, 4-([1,4′-bipiperidin]-1′-yl)-3-((3,4-dimethoxyphenyl)sulfonyl)-6,7-dimethoxyquinoline]
- cytotoxicity at 20 µM: 10%

SMILES: CCCCCCCOc1ccc(S(=O)(=O)c2cnc3ccc([S+](C)[O-])cc3c2N2CCN(CC3CCN(Cc4ccccc4)CC3)CC2)cc1 (stereo not drawn) [compound 279, 4-(4-((1-benzylpiperidin-4-yl)methyl)piperazin-1-yl)-3-((4-(heptyloxy)phenyl)sulfonyl)-6-(methylsulfinyl)quinoline]
- cytotoxicity at 20 µM: 100%

SMILES: CCCCOc1ccc(S(=O)(=O)c2cnc3ccc(C(=O)OCC)cc3c2N2CCC(N3CCCCCC3)CC2)cc1 [compound 176, ethyl 4-(4-(azepan-1-yl)piperidin-1-yl)-3-((4-butoxyphenyl)sulfonyl)quinoline-6-carboxylate]
- cytotoxicity at 40 µM: 100%

SMILES: COc1ccc(S(=O)(=O)c2cnc3cc(OC)c(OC)cc3c2N2CCC(c3ccc(CN4CCCC4)cc3)CC2)cc1 [compound 312, 6,7-dimethoxy-3-((4-methoxyphenyl)sulfonyl)-4-(4-(4-(pyrrolidin-1-ylmethyl)phenyl)piperidin-1-yl)quinoline]
- cytotoxicity at 40 µM: 100%
